Experimental data: patent US20200291096A1, “BICYCLIC PEPTIDE LIGAND STING CONJUGATES AND USES THEREOF” (priority 2017, published 2020)
Starred links: 1 amine or outer side, 2 acyl side, 3 side chain; linkers in the order of their positions; H or OH if unused. Positions of bridges follow the written chain, without caps; N, C: chain ends. Non-standard residues stand in square brackets, D forms with d. Residues, ends and D or L forms follow the SMILES beside them. 1Nal = N[C@@H](Cc1cccc2ccccc12)C(=O)O; TBMB = c1c(C[*:1])cc(C[*:3])cc1C[*:2]; Tle = CC(C)(C)[C@H](N)C(=O)O; βAla = NCCC(=O)O; Sar = CNCC(=O)O

How the values were obtained:
[1] = biological target: MT1 (Homo sapiens, UniProt P50281); assay: Effect on catalytic activity of MT1 in vitro; type: biochemical
[2] = test system: catalytic domain (MT1); assay: Binding to catalytic domain of MT1
[3] = biological target: MMP16 (Homo sapiens, UniProt P51512); assay: Binding to related MMP family member MMP16
Chain of MMP16 (P51512 120-607, species assumed): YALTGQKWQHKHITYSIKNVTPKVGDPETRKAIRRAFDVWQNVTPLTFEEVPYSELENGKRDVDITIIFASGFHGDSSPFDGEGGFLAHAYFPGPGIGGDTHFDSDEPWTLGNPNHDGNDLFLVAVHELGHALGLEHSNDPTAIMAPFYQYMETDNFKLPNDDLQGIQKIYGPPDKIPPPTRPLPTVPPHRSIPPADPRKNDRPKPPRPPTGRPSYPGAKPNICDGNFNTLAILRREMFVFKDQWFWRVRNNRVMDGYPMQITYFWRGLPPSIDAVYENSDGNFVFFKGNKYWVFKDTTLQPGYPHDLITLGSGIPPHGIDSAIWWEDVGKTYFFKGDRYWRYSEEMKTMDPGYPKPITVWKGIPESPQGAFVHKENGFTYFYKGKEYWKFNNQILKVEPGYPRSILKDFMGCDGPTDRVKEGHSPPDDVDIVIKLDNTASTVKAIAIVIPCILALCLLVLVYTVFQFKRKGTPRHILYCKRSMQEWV

[4] = biological target: MMP24 (Homo sapiens, UniProt Q9Y5R2); assay: Binding to related MMP family member MMP24
Chain of MMP24 (Q9Y5R2 156-645, species assumed): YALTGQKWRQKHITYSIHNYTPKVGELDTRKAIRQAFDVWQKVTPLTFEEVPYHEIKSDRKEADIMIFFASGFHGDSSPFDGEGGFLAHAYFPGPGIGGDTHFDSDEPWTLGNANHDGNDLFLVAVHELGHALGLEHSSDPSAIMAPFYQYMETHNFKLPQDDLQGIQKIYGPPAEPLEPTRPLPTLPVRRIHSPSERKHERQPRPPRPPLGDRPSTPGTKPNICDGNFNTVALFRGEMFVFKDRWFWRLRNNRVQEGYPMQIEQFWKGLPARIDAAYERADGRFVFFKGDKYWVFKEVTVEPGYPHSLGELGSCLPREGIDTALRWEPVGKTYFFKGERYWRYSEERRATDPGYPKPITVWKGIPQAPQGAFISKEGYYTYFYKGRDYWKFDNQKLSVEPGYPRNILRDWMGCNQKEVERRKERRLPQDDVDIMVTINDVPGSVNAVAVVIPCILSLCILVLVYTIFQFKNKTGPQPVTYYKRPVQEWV

[5] = biological target: T1, Pro-MMP1 (Homo sapiens, UniProt P03956); assay: Binding to related MMP family member Pro-MMP1
T1 sequence (P03956 20-469 limits assumed): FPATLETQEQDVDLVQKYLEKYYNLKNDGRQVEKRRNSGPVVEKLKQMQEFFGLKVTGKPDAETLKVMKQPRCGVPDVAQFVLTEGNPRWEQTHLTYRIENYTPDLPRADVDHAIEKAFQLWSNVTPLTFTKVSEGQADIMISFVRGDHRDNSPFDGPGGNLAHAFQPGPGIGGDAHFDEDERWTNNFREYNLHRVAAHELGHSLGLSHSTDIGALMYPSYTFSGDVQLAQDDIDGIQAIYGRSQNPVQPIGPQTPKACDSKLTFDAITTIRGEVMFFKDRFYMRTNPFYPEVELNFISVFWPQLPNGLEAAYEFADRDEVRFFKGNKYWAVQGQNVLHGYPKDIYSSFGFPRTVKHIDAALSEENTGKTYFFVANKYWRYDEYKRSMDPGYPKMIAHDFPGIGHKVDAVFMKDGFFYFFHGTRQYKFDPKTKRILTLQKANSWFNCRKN

[6] = biological target: T2, MMP1 (Homo sapiens, UniProt P03956); assay: Effect on MMP1 catalytic activity; type: biochemical; conditions: in vitro
T2 sequence (P03956 100-469): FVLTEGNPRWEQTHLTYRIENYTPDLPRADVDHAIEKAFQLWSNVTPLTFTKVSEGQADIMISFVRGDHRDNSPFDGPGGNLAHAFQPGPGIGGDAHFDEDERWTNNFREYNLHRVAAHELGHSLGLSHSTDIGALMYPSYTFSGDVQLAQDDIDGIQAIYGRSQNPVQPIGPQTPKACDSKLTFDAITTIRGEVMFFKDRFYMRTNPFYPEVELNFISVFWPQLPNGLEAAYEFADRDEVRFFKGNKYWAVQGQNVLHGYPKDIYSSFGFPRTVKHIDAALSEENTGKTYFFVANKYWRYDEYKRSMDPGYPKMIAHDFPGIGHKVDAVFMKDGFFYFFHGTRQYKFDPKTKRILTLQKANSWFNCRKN

[7] = biological target: T2, MMP1; assay: Binding to related MMP family member MMP1
[8] = test system: cell migration or invasion; assay: Effect on cell migration or invasion; type: cell-based; conditions: in vitro
[9] = biological target: MMP9 (Homo sapiens, UniProt P14780); assay: Effect on MMP9 catalytic activity; type: biochemical; conditions: in vitro
Chain of MMP9 (P14780 94-707, species assumed): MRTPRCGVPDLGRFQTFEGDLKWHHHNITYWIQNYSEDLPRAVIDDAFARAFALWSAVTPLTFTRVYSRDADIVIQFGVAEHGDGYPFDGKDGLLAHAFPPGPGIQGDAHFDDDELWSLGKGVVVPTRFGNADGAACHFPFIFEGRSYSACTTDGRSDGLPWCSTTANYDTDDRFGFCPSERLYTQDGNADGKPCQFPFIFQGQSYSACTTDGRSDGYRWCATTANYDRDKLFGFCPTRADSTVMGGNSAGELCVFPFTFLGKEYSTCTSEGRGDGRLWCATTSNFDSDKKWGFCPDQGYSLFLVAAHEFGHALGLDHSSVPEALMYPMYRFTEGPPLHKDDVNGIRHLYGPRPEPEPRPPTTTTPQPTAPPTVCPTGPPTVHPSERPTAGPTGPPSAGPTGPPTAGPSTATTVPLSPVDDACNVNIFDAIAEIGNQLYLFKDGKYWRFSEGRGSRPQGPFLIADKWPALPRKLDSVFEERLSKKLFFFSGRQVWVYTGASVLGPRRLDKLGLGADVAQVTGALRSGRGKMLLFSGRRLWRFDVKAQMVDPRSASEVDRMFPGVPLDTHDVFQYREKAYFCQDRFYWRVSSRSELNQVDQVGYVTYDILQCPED

[10] = biological target: T3, MMP2 (Homo sapiens, UniProt P08253); assay: Binding to related MMP family member MMP2
T3 sequence (P08253 110-660): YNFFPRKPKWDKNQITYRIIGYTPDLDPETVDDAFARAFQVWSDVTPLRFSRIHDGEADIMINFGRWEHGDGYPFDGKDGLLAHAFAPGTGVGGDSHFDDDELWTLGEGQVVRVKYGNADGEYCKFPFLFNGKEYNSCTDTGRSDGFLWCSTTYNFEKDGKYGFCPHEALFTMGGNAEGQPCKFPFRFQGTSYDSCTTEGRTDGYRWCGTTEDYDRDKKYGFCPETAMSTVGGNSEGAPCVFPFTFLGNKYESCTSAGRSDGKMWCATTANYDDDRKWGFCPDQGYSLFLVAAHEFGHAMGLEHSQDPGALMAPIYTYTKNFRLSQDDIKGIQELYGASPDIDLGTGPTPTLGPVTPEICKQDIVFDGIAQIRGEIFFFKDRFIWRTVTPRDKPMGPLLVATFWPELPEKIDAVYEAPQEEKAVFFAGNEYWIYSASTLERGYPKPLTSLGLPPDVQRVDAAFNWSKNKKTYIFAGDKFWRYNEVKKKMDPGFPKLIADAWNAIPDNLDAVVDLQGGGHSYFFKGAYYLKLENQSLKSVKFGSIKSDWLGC

[11] = biological target: T3, MMP2; assay: Effect on MMP2 catalytic activity; type: biochemical; conditions: in vitro
[12] = biological target: MMP15 (Homo sapiens, UniProt P51511); assay: Binding to related MMP family member MMP15
Chain of MMP15 (P51511 132-669, species assumed): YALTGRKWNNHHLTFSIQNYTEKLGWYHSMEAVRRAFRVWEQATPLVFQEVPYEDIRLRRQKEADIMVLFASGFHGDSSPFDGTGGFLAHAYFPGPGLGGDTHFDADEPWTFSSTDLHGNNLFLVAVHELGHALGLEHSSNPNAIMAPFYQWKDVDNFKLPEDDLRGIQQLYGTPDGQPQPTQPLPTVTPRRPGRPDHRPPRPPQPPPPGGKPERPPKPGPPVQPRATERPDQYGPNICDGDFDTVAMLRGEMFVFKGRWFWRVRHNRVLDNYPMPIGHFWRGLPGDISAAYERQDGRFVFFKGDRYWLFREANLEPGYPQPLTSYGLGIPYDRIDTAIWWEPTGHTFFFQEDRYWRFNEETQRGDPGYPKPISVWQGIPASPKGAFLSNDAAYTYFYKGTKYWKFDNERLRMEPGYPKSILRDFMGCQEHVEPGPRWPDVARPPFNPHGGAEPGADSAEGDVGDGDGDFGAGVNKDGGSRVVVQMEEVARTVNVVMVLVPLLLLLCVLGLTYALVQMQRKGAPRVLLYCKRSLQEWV

Structure (SMILES): C[C@H](NC(=O)CN(C)C(=O)CN(C)C(=O)CN(C)C(=O)CN(C)C(=O)CN(C)C(=O)CN(C)C(=O)CN(C)C(=O)CN(C)C(=O)CN(C)C(=O)CN(C)C(=O)CCN)C(=O)N[C@H]1CSCc2cc3cc(c2)CSC[C@H](NC(=O)[C@@H](C)NC(=O)[C@H](Cc2cccc4ccccc24)NC(=O)[C@H](CCC(=O)O)NC(=O)[C@H](CC(N)=O)NC(=O)[C@@H](C)NC1=O)C(=O)N[C@@H](CCC(=O)O)C(=O)N[C@@H](CC(=O)O)C(=O)N[C@@H](Cc1ccccc1)C(=O)N[C@@H](Cc1ccc(O)cc1)C(=O)N[C@@H](CC(=O)O)C(=O)N[C@@H](C(C)(C)C)C(=O)N[C@H](C(N)=O)CSC3 [N241] (H-[βAla][Sar][Sar][Sar][Sar][Sar][Sar][Sar][Sar][Sar][Sar]AC[dA]NE[1Nal][dA]CEDFYD[Tle]C-NH2; linker 13-19-26 via TBMB; N-terminus and C-terminus assumed)
- impact on the catalytic activity of the protease (MT1) [1]: no direct impact
- binding to the catalytic domain [2]: no binding
- binding toward MMP16 [3]: no binding
- binding toward MMP24 [4]: no binding
- binding toward Pro-MMP1 [5]: no binding
- impact on MMP1 catalytic activity [6]: no direct impact
- binding toward MMP1 [7]: no binding
- impact on cell migration or invasion [8]: no direct impact
- impact on MMP9 catalytic activity [9]: no direct impact
- binding toward MMP2 [10]: no binding
- impact on MMP2 catalytic activity [11]: no direct impact
- binding toward MMP15 [12]: no binding
